Test results taken from PMC11329928, “Design, synthesis and structure-activity relationship (SAR) studies of an unusual class of non-cationic fatty amine-tripeptide conjugates as novel synthetic antimicrobial agents” (Frontiers in Pharmacology, 2024).
“And” between values parts separate entries of the source, which are not always exact repeats. Equal entries are not always repeated. Structures can show the parent of a compound that is named as a salt. Where two headings read alike, the source gives them in different places.

Legend:
[1] = system: Pseudomonas aeruginosa PAO1; test: Growth inhibition screening of planktonic cultures (OD550/600); assay type: cell-based; design: key: (+++) full inhibition; (++) partial inhibition; (+) growth retardation; -: (−) no effect; conditions: P. aeruginosa PAO1, 50 and 100 μM compound added at T1, OD550/600 followed 10 h, 37°C
Outline: (§1)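 Early exponential-phase cultures (OD550/600 c. a. 0.15–0.2) were treated with DICAMs at 50 and 100 μM final, diluted from DMSO stocks into medium, and incubated 10 h at 37°C. Turbidity (OD550/600) was read every 20 min against untreated controls to track growth inhibition and lysis.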

S. pyogenes T = test: Dose dependence of bacterial viability (CFU counting, Hill fit); assay type: cell-based, Streptococcus pyogenes; conditions: for EC50 / Δlogmax, S. pyogenes T / SC (stationary concentration, Δlog = 0), S. pyogenes T: 2 h treatment, Hill fit; for EC50 / Δlogmax, S. pyogenes T / Decrease of the number of viable bacteria in the inoculum within 2 h: BHI; for EC50 / Δlogmax, S. pyogenes T / Decrease of the number of viable bacteria in the inoculum within 2 h / SC (stationary concentration, Δlog = 0), S. pyogenes T: 37°C; for EC50: read-out: K 1/2 (concentration yielding half-variation in Δlogmax), S. pyogenes T (converted); for Δlogmax, S. pyogenes T: maximum variation in viability; for Decrease of the number of viable bacteria in the inoculum within 2 h: S. pyogenes T; for Reduction of bacterial viability at 3 × SC, S. pyogenes T: after 2 h of incubation at 3 × SC; for SC (stationary concentration, Δlog = 0), S. pyogenes T: BHI medium, added at T1, 10^7–10^8 CFU/mL, CFU vs untreated controls
Description: First, the substitution of the fatty amino chain of 18 carbon atoms of the reference compound DICAM 2 by either an OMe group (methylated tripeptide DICAM 5) or an amine with 12 carbon atoms (DICAM 9) abolished the activity against all three pathogens. However, the activity remained intact when the chain of the fatty amine of prototypes DICAMs 1 and 4 was two carbon atoms shorter (DICAM 10 and DICAM 12, respectively), based on S. pneumoniae and S. pyogenes results. […] Third, Glu and Ala were tolerated as C-terminal residues of the lipotripeptides. […] In addition, deletion of the C-terminal Glu (DICAM 13) eradicated the activity against S. pneumoniae and S. aureus. However, a delay and small inhibition of S. pyogenes ^T growth was still observed. Fourth, Glu (DICAMs 19 and 20) and Orn (DICAMs 21 and 22) were tolerated as N-terminal residues, with the impact of these modifications being pathogen-dependent. […] SAR studies continued by measuring the dose dependence of DICAM’s activity at T1 with all the compounds found to be active against S. pyogenes or S. aureus in the initial screening, and all but one compound in the case of S. pneumoniae. The OD values of bacterial cultures were monitored after DICAM addition, and the decrease in the number of viable bacteria was measured relative to controls (Figures 4–6; Supplementary Figure S1). As antibacterial efficacy may decline with the bacterium dose in the inoculum ([Belley et al., 2009]; [Udekwu et al., 2009]; [Luca et al., 2013]), the assays were performed using the bacterial concentrations necessary for the fluorescence experiments in Section 2.3 (10^7–10^8 CFU/mL). At these high bacterial densities, MICs were determined as the DICAM concentration at which bacteria neither grow nor are killed (the stationary concentration (SC)), following [Udekwu et al., 2009]. By fitting the logarithmic plot of cell viability decrease vs. the DICAM dose to a Hill function (see Section 5.2.3.1) we were able to determine the maximum variation in viability (Δlogmax = ∆log f - ∆log 0, where ∆log f and ∆log 0 are the upper and lower limits of Δlog) in the assay conditions, the SC concentration (Δlog = 0), the dose required for half-variation in Δlogmax (K 1/2), and the cooperativity of the antimicrobial effect (N H).
Susceptibility to DICAMs was first tested by growth-inhibition assays at 50 and 100 μM of compound. Briefly, working solutions at 5 mM or 10 mM DICAM in pure DMSO were prepared from DICAM stocks (40 mM in pure DMSO) and diluted with fresh culture medium to 5× the desired final concentration. Aliquots (50 µL) of these solutions were added to 200 µL of bacterium cultures grown to early exponential phase (OD550/600 c. a. 0.15–0.2 in sterile 96-well plates (Cultek, Spain). Incubation continued for 10 h at 37°C and turbidity (OD550/600) values were measured every 20 min to monitor growth and lysis, using a VersaMax microplate reader (Molecular Devices; United Kingdom). Next, the activity dependence on DICAM’s dose was examined by measuring the turbidity of treated and untreated cultures as a function of time. Also, the decay of bacterial viability (CFU/mL) at selected times of treatment was assessed by colony counting on LB-agar or TSA plates after overnight incubation at 37°C. By default, 10 μL of 10-fold serially diluted samples were plated, which set the lower detection limit at 10^2 CFU/mL (10^1 CFU/mL when 100 μL of the undiluted sample was seeded).
As antibacterial efficacy may decline with the bacterium dose in the inoculum ([Belley et al., 2009]; [Udekwu et al., 2009]; [Luca et al., 2013]), activity assays were performed using the bacterial concentrations required for the fluorescence experiments in Section 2.3 (10^7–10^8 CFU/mL). At such bacterial densities, MICs were determined as the DICAM concentration at which bacteria neither grow nor are killed under assay conditions (the stationary concentration (SC)), as indicated in Section 2.2. […]

[2] = system: human HeLa cervix carcinoma cells; assay type: cell-based
Method: (§2) DICAM’s cytotoxicity was determined employing a modified MTT assay as described elsewhere ([Antúnez-Mojica et al., 2016]) using human lung carcinoma epithelial cells A549, human fetal lung fibroblasts IMR-90, and human HeLa cervix carcinoma cells treated with increasing concentrations of DICAMs (0.8–200 µM range). A549 cells were grown in RPMI 1640 (Gibco; Fisher Scientific, Spain) supplemented with 10% FCS, 2 mM glutamine, 100 IU/mL penicillin and 100 μg/mL streptomycin. IMR-90 and HeLa cells were cultured in DMEM (Gibco; Fisher Scientific, Spain) supplemented with 10% FCS, 2 mM L-glutamine, 1 mM pyruvate, […] penicillin, 100 μg/mL streptomycin and 40 μg/mL gentamycin. Cell viability was assessed after 48 h exposure to DICAMs. Vinblastine was used as a positive control. IC50 value is the concentration that gives 50% inhibition of cell growth and was determined using SigmaPlot (Systat) fitting to a Four Parameter Logistic curve.

[3] = system: human fetal lung fibroblasts IMR-90; assay type: cell-based
Method: as §2

[4] = system: human lung carcinoma epithelial cells A549; assay type: cell-based
Method: as §2

Escherichia coli DH10B = test: Growth inhibition screening of planktonic cultures (OD550/600); assay type: cell-based; design: key: (+++) full inhibition; (++) partial inhibition; (+) growth retardation; -: (−) no effect; conditions: E. coli DH10B, 50 and 100 μM compound added at T1, OD550/600 followed 10 h, 37°C
Outline: as §1

Staphylococcus aureus T = test: as above; assay type: cell-based; design: key: (+++) full inhibition; (++) partial inhibition; (+) growth retardation; -: (−) no effect; conditions: S. aureus T, 50 and 100 μM compound added at T1, OD550/600 followed 10 h, 37°C
Outline: as §1

Row | Molecule | Growth halt or lysis (50/100 μM), Pa [1] | EC50 (S. pyogenes T) | Δlogmax, S. pyogenes T (S. pyogenes T) | IC50 ([2]; 48 h) | IC50 ([3]; 48 h) | IC50 ([4]; 48 h) | Growth halt or lysis (50/100 μM), Ec (Escherichia coli DH10B) | Growth halt or lysis (50/100 μM), Sa T (Staphylococcus aureus T) | Decrease of the number of viable bacteria in the inoculum within 2 h (S. pyogenes T) | Reduction of bacterial viability at 3 × SC, S. pyogenes T (S. pyogenes T) | SC (stationary concentration, Δlog = 0), S. pyogenes T (S. pyogenes T) | IC50 ([2]; modified MTT, 48 h exposure, 0.8–200 µM, four parameter logistic fit, ± SD, at least three independent experiments, read-out: IC50 HeLa) | IC50 ([3]; modified MTT, 48 h exposure, 0.8–200 µM, four parameter logistic fit, ± SD, at least three independent experiments, read-out: IC50 IMR-90) | IC50 ([4]; modified MTT, 48 h exposure, 0.8–200 µM, four parameter logistic fit, ± SD, at least three independent experiments, read-out: IC50 A549)
1 | CCCCCCCCCCCCCCCCCCNC(=O)[C@H](CCC(=O)O)NC(=O)[C@H]1CCCN1C(=O)[C@H](CC(N)=O)NC(=O)OCc1ccccc1 [DICAM 1, Cbz-Asn- Pro -Glu-NH-C18H37] | - | 8.3 ± 0.9 µM | 2.5 ± 0.1 logarithmic units | 29 ± 2 µM | 39 ± 1 µM | 45 ± 6 µM |  |  |  |  |  |  |  | 
2 | CCCCCCCCCCCCCCCCCCNC(=O)[C@H](CCC(=O)O)NC(=O)[C@H]1CCCN1C(=O)[C@@H](N)CC(N)=O [DICAM 2, Asn- Pro -Glu-NH-C18H37 ·HCl] | - | 14 ± 2 µM | 3.9 ± 0.4 logarithmic units | 42 ± 2 µM | 46.7 ± 0.7 µM | 42 ± 5 µM | - | ++ | 99.9–99.99% | 94.5%–99.9 |  |  |  | 
3 | CCCCCCCCCCCCCCCCCCNC(=O)[C@H](CCC(=O)O)NC(=O)[C@H]1CCCN1C(=O)[C@H](C)NC(=O)OCc1ccccc1 [DICAM 3, Cbz-Ala- Pro -Glu-NH-C18H37] | - | 8.1 ± 0.4 µM | 5.4 ± 0.1 logarithmic units | 49.2 ± 1.5 µM | 75 ± 13 µM | 59.2 ± 0.7 µM | - | - | 99.9–99.99% | 94.5%–99.9 | 3–5 µM and 3.0 ± 0.4 µM |  |  | 
4 | CCCCCCCCCCCCCCCCCCNC(=O)[C@H](CCC(=O)O)NC(=O)[C@H]1CCCN1C(=O)[C@H](C)N [DICAM 4, Ala- Pro -Glu-NH-C18H37 ·HCl] | - | 51 ± 10 µM | 6.8 ± 0.8 logarithmic units | 32 ± 2 µM | 65 ± 3 µM | ≥ 25 µM | - | ++ |  |  | 10 ± 4 µM |  |  | 
5 | CCCCCCCCCCCCCCCCNC(=O)[C@H](CCC(=O)O)NC(=O)[C@H]1CCCN1C(=O)[C@H](CC(N)=O)NC(=O)OCc1ccccc1 [DICAM 10, Cbz-Asn- Pro -Glu-NH-C16H33] | - | 6.8 ± 0.7 µM | 2.6 ± 0.1 logarithmic units | 28 ± 0.7 µM | 45 ± 1 µM | 35 ± 2 µM |  |  |  |  |  |  |  | 
6 | CCCCCCCCCCCCCCCCCCNC(=O)[C@H](C)NC(=O)[C@H]1CCCN1C(=O)[C@H](C)N [DICAM 14, Ala- Pro -Ala-NH-C18H37 · HCl] | - | 41 ± 10 µM | 3.7 ± 0.8 logarithmic units | 6.3 ± 0.7 µM | 7.69 ± 0.06 µM | 8 ± 0.3 µM | - | +++ |  |  | 22 ± 10 µM |  |  | 
7 | CCCCCCCCCCCCCCCCCCNC(=O)[C@H](CCC(=O)O)NC(=O)[C@H]1CCCN1C(=O)[C@H](CCC(=O)O)NC(=O)OCc1ccccc1 [DICAM 19, Cbz-Glu- Pro -Glu-NH-C18H37] | - | 7.1 ± 0.8 µM | 3.0 ± 0.2 logarithmic units | 46 ± 2 µM | 44 ± 1 µM | 45 ± 2 µM | - | + |  | 94.5%–99.9 | 4−5 µM and 3.8 ± 0.9 µM |  |  | 
8 | CCCCCCCCCCCCCCCCCCNC(=O)[C@H](CCC(=O)O)NC(=O)[C@H]1CCCN1C(=O)[C@H](CCCN)NC(=O)OCc1ccccc1 [DICAM 21, Cbz-Orn- Pro -Glu-NH-C18H37] | - | 38 ± 40 µM | 4 ± 2 logarithmic units |  | 86 ± 15 µM |  | - | + |  |  | ∼10 µM |  |  | 
9 | CCCCCCCCCCCCCCCCCCNC(=O)[C@H](CCC(=O)O)NC(=O)[C@H]1CCCN1C(=O)[C@@H](N)CCCN [DICAM 22, Orn- Pro -Glu-NH-C18H37 · HCl] | - |  |  | 57.2 ± 0.4 µM | 58 ± 0.4 µM | 59.6 ± 0.9 µM | - | + |  |  |  |  |  | 
10 | CCCCCCCCCCCCCCCCCCNC(=O)[C@H](CCC(=O)O)NC(=O)[C@H]1CCCN1C(=O)[C@H](C)NC(C)=O [DICAM 24, Ac-Ala- Pro -Glu-NH-C18H37] |  | 7.2 ± 0.4 µM | 5.3 ± 0.1 logarithmic units | 28.4 ± 0.2 µM | 43.8 ± 0.6 µM | 40 ± 3 µM | - | ++ | 99.9–99.99% | 94.5%–99.9 |  |  |  | 
11 | Ala - Pro -Glu-NH-C18H37 · HCl [DICAM 23] | - |  |  |  |  |  | - | ++ |  |  |  | 13.4 ± 0.9 µM | 57 ± 2 µM | 80.6 ± 0.2 µM
